{"source": "patent US11919892B1", "about": "“2-(benzo[d]thiazol-2-yl)-N'-(2-(5-(4-chlorophenyl)-1,3,4-oxadiazol-2-ylthio)acetoxy)acetimidamide as an antimicrobial compound” (KING FAISAL UNIVERSITY, priority 2023, dated 2024)", "key": {"[1]": {"tested_on": "Chrysosporium keratinophilum", "assay": "Agar plate disc-diffusion, antifungal, Chrysosporium keratinophilum", "assay_type": "cell-based", "details": "Sabouraud's dextrose agar, 72 hours", "protocol": "(§1) The agar plate disc-diffusion method was applied. Sterilized filter papers (6 mm in diameter) were wetted with 10 μL of a solution of 2-(benzo[d]thiazol-2-yl)-N′-(2-(5-(4-chlorophenyl)-1, 3,4-oxadiazol-2-ylthio)acetoxy)acetimidamide (3) to be tested, containing 10 mg/mL in DMSO, and the discs were allowed to air dry. The discs were then placed onto the surface of agar plates (nutrient agar for bacteria and Sabouraud's dextrose agar for fungi) seeded with the test organism. Each plate contained 15 mL of the agar medium, previously seeded with 0.2 mL of the broth culture of each organism pregrown for 18 hours. The plates were incubated at 37° C. for 48 hours and 72 hours for fungi. The inhibition zones were measured in mm. Discs impregnated with DMSO were used as a control, and their inhibition zone was subtracted from the tested compound's actual inhibition zone."}, "Aspergillus flavus": {"tested_on": "Aspergillus flavus", "assay": "Agar plate disc-diffusion, antifungal, Aspergillus flavus", "assay_type": "cell-based", "details": "Sabouraud's dextrose agar, 72 hours", "protocol": "as §1"}, "Bacillus Cereus": {"tested_on": "Bacillus Cereus", "assay": "Agar plate disc-diffusion, antibacterial, Bacillus cereus", "assay_type": "cell-based", "details": "nutrient agar, 37° C., 48 hours", "protocol": "as §1"}, "Staphylococcus aureus": {"tested_on": "Staphylococcus aureus", "assay": "Agar plate disc-diffusion, antibacterial, Staphylococcus aureus", "assay_type": "cell-based", "details": "nutrient agar, 37° C., 48 hours", "protocol": "as §1"}, "Escherichia coli": {"tested_on": "Escherichia coli", "assay": "Agar plate disc-diffusion, antibacterial, Escherichia coli", "assay_type": "cell-based", "details": "nutrient agar, 37° C., 48 hours", "protocol": "as §1"}, "Pseudomonas aeruginosa": {"tested_on": "Pseudomonas aeruginosa", "assay": "Agar plate disc-diffusion, antibacterial, Pseudomonas aeruginosa", "assay_type": "cell-based", "details": "nutrient agar, 37° C., 48 hours", "protocol": "as §1"}, "[2]": {"details": "A = concentration of comp. = 10,000 μL"}, "[3]": {"details": "B = concentration of comp. = 30,000 μL"}, "[4]": {"details": "C = concentration of comp. = 50,000 μL"}}, "data": [{"smiles": "N/C(Cc1nc2ccccc2s1)=N\\OC(=O)CSc1nnc(-c2ccc(Cl)cc2)o1", "note": "[compound 3, 2-(benzo[d]thiazol-2-yl)-N′-(2-(5-(4-chlorophenyl)-1,3,4-oxadiazol-2-ylthio)acetoxy)acetimidamide]", "values": [{"measurement": "inhibition zone, Chrysosporium keratinophilum, A", "setting": "[1]; [2]", "value": 26, "unit": "mm"}, {"measurement": "inhibition zone, Chrysosporium keratinophilum, B", "setting": "[1]; [3]", "value": 31, "unit": "mm"}, {"measurement": "inhibition zone, Chrysosporium keratinophilum, C", "setting": "[1]; [4]", "value": 49, "unit": "mm"}, {"measurement": "inhibition zone, Aspergillus flavus, A", "setting": "Aspergillus flavus; [2]", "value": 24, "unit": "mm"}, {"measurement": "inhibition zone, Aspergillus flavus, B", "setting": "Aspergillus flavus; [3]", "value": 29, "unit": "mm"}, {"measurement": "inhibition zone, Aspergillus flavus, C", "setting": "Aspergillus flavus; [4]", "value": 41, "unit": "mm"}, {"measurement": "melting point", "value": "157 to 158", "unit": "°C"}, {"measurement": "inhibition zone, Bacillus Cereus, A", "setting": "Bacillus Cereus; A =", "value": 25, "unit": "mm"}, {"measurement": "inhibition zone, Bacillus Cereus, B", "setting": "Bacillus Cereus; [3]", "value": 28, "unit": "mm"}, {"measurement": "inhibition zone, Bacillus Cereus, C", "setting": "Bacillus Cereus; [4]", "value": 39, "unit": "mm"}, {"measurement": "inhibition zone, Staphylococcus aureus, A", "setting": "Staphylococcus aureus; [2]", "value": 33, "unit": "mm"}, {"measurement": "inhibition zone, Staphylococcus aureus, B", "setting": "Staphylococcus aureus; [3]", "value": 40, "unit": "mm"}, {"measurement": "inhibition zone, Staphylococcus aureus, C", "setting": "Staphylococcus aureus; [4]", "value": 52, "unit": "mm"}, {"measurement": "inhibition zone, Escherichia coli, A", "setting": "Escherichia coli; [2]", "value": 25, "unit": "mm"}, {"measurement": "inhibition zone, Escherichia coli, B", "setting": "Escherichia coli; [3]", "value": 34, "unit": "mm"}, {"measurement": "inhibition zone, Escherichia coli, C", "setting": "Escherichia coli; [4]", "value": 47, "unit": "mm"}, {"measurement": "inhibition zone, Pseudomonas aeruginosa, A", "setting": "Pseudomonas aeruginosa; [2]", "value": 23, "unit": "mm"}, {"measurement": "inhibition zone, Pseudomonas aeruginosa, B", "setting": "Pseudomonas aeruginosa; [3]", "value": 27, "unit": "mm"}, {"measurement": "inhibition zone, Pseudomonas aeruginosa, C", "setting": "Pseudomonas aeruginosa; [4]", "value": 43, "unit": "mm"}]}]}
